Source: ChEMBL document CHEMBL5291721, “A preclinical secondary pharmacology resource illuminates target-adverse drug reaction associations of marketed drugs” (Nat Commun, 2023)

What was measured:
[1] = target: T1, Adenosine receptor A1 (Homo sapiens, UniProt P30542)
T1 sequence (P30542 whole entry): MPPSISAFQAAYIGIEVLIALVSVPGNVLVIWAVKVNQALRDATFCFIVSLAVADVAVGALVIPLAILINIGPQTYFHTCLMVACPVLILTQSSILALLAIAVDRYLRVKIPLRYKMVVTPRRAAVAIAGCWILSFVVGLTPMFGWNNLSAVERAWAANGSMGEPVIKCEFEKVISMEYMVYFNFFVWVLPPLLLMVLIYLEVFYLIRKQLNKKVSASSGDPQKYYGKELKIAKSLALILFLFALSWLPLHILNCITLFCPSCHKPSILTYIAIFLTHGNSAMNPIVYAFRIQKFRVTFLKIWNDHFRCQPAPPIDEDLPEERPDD

[2] = target: T2, Alpha-2A adrenergic receptor (Homo sapiens, UniProt P08913); type: functional, cell-based
T2 sequence (P08913 whole entry): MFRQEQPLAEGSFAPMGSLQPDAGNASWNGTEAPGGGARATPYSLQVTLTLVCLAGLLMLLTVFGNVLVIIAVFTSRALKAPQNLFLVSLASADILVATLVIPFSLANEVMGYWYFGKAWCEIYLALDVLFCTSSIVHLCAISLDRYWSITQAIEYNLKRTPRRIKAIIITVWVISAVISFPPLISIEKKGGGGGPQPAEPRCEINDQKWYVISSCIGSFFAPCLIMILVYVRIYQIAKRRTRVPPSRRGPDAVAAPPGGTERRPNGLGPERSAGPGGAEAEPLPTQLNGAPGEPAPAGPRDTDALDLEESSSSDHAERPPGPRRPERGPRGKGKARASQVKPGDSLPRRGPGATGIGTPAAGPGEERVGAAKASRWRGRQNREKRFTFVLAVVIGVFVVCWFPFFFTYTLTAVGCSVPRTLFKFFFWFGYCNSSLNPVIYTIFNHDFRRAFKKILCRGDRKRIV

[3] = target: Beta-2 adrenergic receptor (Homo sapiens, UniProt P07550)
Beta-2 adrenergic receptor, sequence (P07550 whole entry): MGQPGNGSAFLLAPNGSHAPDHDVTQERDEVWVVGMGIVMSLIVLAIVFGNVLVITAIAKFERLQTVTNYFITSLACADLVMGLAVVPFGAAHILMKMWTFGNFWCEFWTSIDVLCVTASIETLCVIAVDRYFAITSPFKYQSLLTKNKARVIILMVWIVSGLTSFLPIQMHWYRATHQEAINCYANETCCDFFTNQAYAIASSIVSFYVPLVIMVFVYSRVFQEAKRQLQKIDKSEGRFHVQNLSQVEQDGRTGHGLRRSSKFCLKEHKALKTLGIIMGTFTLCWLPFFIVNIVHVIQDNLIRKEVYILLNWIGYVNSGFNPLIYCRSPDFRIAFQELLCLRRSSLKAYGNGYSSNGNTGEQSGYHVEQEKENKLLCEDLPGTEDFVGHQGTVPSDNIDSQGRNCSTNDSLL

[4] = target: T3, B2 bradykinin receptor (Homo sapiens, UniProt P30411)
T3 sequence (P30411 whole entry): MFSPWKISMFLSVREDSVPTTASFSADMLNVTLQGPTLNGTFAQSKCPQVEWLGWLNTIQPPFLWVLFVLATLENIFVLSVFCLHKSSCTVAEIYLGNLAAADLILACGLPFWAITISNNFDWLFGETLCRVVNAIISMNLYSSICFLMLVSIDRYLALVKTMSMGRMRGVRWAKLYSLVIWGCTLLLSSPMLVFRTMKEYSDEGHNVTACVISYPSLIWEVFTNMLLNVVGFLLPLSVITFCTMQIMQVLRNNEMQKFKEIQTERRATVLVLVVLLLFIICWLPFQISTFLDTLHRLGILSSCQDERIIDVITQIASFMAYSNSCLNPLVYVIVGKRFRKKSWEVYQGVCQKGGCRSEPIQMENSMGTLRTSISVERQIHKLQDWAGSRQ

[5] = target: T4, Cholecystokinin receptor type A (Homo sapiens, UniProt P32238)
T4 sequence (P32238 whole entry): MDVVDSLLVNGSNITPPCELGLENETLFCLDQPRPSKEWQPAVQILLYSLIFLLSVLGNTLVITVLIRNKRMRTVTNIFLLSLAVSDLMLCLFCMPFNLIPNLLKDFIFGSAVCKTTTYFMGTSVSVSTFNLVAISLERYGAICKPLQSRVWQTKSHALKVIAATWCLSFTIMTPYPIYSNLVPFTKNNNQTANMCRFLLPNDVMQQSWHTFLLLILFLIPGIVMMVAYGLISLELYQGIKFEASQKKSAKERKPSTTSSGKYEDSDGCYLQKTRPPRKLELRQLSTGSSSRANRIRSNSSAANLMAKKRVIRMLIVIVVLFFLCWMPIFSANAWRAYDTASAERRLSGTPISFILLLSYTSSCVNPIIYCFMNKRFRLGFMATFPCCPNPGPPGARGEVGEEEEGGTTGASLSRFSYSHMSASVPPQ

[6] = target: T5, 5-hydroxytryptamine receptor 3A (Homo sapiens, UniProt P46098); type: functional
T5 sequence (P46098 whole entry): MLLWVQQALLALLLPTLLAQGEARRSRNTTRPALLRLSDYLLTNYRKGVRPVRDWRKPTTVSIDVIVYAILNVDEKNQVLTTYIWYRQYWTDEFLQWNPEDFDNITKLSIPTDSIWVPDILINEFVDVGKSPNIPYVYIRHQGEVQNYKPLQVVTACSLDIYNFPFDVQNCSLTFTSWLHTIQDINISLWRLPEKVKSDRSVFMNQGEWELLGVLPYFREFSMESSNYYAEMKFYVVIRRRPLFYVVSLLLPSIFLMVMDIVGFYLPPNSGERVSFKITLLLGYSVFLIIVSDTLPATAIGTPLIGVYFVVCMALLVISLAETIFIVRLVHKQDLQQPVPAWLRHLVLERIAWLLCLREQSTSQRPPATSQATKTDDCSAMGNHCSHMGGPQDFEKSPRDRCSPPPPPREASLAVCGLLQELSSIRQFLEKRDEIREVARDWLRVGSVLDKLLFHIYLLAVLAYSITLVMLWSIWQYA

[7] = target: 3',5'-cyclic-AMP phosphodiesterase 4D (Homo sapiens, UniProt Q08499); type: functional
3',5'-cyclic-AMP phosphodiesterase 4D, sequence (Q08499 whole entry): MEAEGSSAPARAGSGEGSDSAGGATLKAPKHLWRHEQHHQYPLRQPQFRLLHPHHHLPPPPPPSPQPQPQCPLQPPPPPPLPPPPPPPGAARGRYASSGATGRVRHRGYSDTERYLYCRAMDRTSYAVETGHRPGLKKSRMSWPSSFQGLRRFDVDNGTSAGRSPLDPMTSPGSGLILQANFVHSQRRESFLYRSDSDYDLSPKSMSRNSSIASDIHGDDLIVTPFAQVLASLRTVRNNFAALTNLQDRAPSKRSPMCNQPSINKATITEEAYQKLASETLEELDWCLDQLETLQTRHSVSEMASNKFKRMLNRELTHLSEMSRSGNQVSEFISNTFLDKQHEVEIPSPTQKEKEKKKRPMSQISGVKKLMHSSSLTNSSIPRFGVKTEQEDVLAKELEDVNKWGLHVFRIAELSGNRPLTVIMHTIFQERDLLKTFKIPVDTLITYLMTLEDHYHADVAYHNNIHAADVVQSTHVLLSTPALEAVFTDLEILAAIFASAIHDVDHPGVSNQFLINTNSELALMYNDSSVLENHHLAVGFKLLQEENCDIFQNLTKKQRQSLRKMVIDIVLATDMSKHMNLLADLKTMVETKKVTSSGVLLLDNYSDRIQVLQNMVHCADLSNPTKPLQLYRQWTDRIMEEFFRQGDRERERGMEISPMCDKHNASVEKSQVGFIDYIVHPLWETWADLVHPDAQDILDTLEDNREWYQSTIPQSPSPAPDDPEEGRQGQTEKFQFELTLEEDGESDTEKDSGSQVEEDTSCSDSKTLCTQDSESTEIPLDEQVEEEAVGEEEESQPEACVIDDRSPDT
Further: assay procedure not described here.

Row | Structure (SMILES) | AC50 [1] [µM] | AC50 [2] [µM] | AC50 [3] [µM] | AC50 [4] [µM] | AC50 [5] [µM] | AC50 [6] [µM] | AC50 [7] [µM]
1 | COc1ccc(C(=O)Nc2ccccc2CCC2CCCCN2C)cc1 (stereo not given) [ENCAINIDE] | > 30 | > 10 | > 10 | > 30 | > 30 | > 30 | > 30
2 | CCOc1ccc(Cc2cc([C@@H]3O[C@H](CO)[C@@H](O)[C@H](O)[C@H]3O)ccc2Cl)cc1 [DAPAGLIFLOZIN] | > 30 |  | > 10 | > 30 | > 30 | > 30 | > 30
3 | COc1ccccc1N1CCN(CC(O)COc2cccc3ccccc23)CC1 (stereo not given) [NAFTOPIDIL] |  | > 30 |  |  |  | > 30 | > 30
4 | Cc1oc(=O)oc1CN1CCN(c2cc3c(cc2F)c(=O)c(C(=O)O)c2n3C(C)S2)CC1 (stereo not given) [PRULIFLOXACIN] |  | > 30 |  |  |  | > 30 | > 30
5 | CCCC1O[C@@H]2C[C@H]3[C@@H]4CCC5=CC(=O)C=C[C@]5(C)[C@H]4[C@@H](O)C[C@]3(C)[C@]2(C(=O)CO)O1 (stereo not given in full) [BUDESONIDE] | > 10 | > 10 | > 10 | > 10 | > 10 | > 30 | > 30
6 | CN1CCN(C2=Nc3ccccc3Sc3ccc(Cl)cc32)CC1 [CLOTHIAPINE] |  | > 30 |  |  |  | 9 | > 30
7 | CN(C)CCc1c[nH]c2ccc(C[C@H]3COC(=O)N3)cc12 [ZOLMITRIPTAN] | > 30 | > 30 |  | > 30 | > 30 | > 30 | > 30
8 | O=[N+]([O-])O[C@@H]1CO[C@H]2[C@@H]1OC[C@@H]2O [ISOSORBIDE MONONITRATE] | > 30 | > 10 | > 10 | > 30 | > 30 | > 30 | > 30
9 | CC[C@H]1CN2CCc3cc(OC)c(OC)cc3[C@@H]2C[C@@H]1C[C@H]1NCCc2cc(OC)c(OC)cc21 [EMETINE] | > 30 | > 30 | > 30 | > 30 | > 30 | > 30 | > 30
10 | C=CCN1C[C@H](C(=O)N(CCCN(C)C)C(=O)NCC)C[C@@H]2c3cccc4[nH]cc(c34)C[C@H]21 [CABERGOLINE] | > 10 |  | > 10 | > 10 | > 10 | > 30 | > 30
11 | CCC(CC)(CC(=O)Nc1cccc(/C=C/c2nc(C3CCC3)cs2)c1)C(=O)O | > 30 |  |  | > 30 | > 30 |  | 
12 | CN(C)CCC=C1c2ccccc2C=Cc2ccccc21 [CYCLOBENZAPRINE] | > 30 | > 10 | > 10 | > 30 | > 30 | > 30 | > 30
13 | CN(C)CC/C=C1\c2ccccc2CSc2ccccc21 [DOTHIEPIN] | > 30 | > 30 | > 30 | > 30 | > 30 | > 30 | > 30
14 | CC[C@@H](C(N)=O)N1CCCC1=O | > 30 | > 30 |  | > 30 | > 30 | > 30 | > 30
15 | Cc1cc(C)c(NC(=O)CN(CC(=O)O)CC(=O)O)c(C)c1Br [MEBROFENIN] |  | > 30 |  |  |  | > 30 | > 30
16 | COC1=C(OC)C(=O)C(C/C=C(\C)CC/C=C(\C)CC/C=C(\C)CC/C=C(\C)CC/C=C(\C)CC/C=C(\C)CC/C=C(\C)CC/C=C(\C)CC/C=C(\C)CCC=C(C)C)=C(C)C1=O [UBIDECARENONE] |  | > 30 |  |  |  | > 30 | > 30
17 | CCCCCNC(=N)N/N=C/c1c[nH]c2ccc(OC)cc12 [TEGASEROD] | > 30 | > 30 | 7.36 | > 30 | > 30 | > 30 | 19
18 | CCOc1ccccc1OCC1CNCCO1 (stereo not given) [VILOXAZINE] | > 30 | > 10 | 7.6 | > 30 | > 30 | > 10 | > 30
19 | O=[N+]([O-])c1cn2c(n1)OC[C@@H](OCc1ccc(OC(F)(F)F)cc1)C2 [PRETOMANID] | > 30 |  | > 10 | > 30 | > 30 | > 10 | > 10
20 | COc1cc2nc(N3CCN(C(=O)c4ccco4)CC3)nc(N)c2cc1OC [PRAZOSIN] | > 30 |  | > 10 | > 30 | > 30 | > 10 | > 30
